# Measured values from patent US20260306500A1, “METHOD OF INHIBITING ADENOSINE TRIPHOSPHATE SECRETION, METHOD OF INHIBITING HEPATIC STELLATE CELL ACTIVATION, METHOD OF DEACTIVATING HEPATIC STELLATE CELL, METHOD OF TREATING HEPATIC FIBROSIS, METHOD OF TREATING NON-ALCOHOLIC STEATOHEPATITIS, AND METHOD OF TREATING PSORIASIS” (Kurume University, priority 2023, published 2026).
# Columns and labels:
# ATP secretion = conditions: known; cited from earlier work
# mouse auricle = assay: Imiquimod-induced psoriasis model, comparison with an anti-TNFα antibody (Example 19); assay type: in vivo
# Experimental: The dorsal hair of mice was shaved and depilated (Day 0). To each of the left auricle and the depilated back of each mouse, 62.5 mg of 5% imiquimod cream (Beselna Cream 5%) was applied once daily a total of seven times (Days 1 to 7) in accordance with Example 18, to induce imiquimod-induced psoriasis (IMQ group). In the IMQ+IMG group, mice received oral administration of imeglimin (40 mg/kg) once daily (Day 1 to 7) after the imiquimod application. […] Thickness of the auricle was measured, and the degrees of erythema, desquamation, and infiltration in the affected area were rated on Days 1, 3, 5, 7, and 8 according to the PASI scoring of the DermNET Dermatology Resource (none: 0, mild: 1, moderate: 2, severe: 3, and very severe: 4). The resulting values were used to calculate the PASI score.
# Further, for an auricle excised on Day 8, immunohistochemical staining was performed in the same manner as in Example 18, and auricular sections were imaged using a fluorescence microscope (BZ-X710; manufactured by Keyence Corporation).
# mouse liver = assay: Thioacetamide-induced hepatic fibrosis in mice: histology, immunostaining and fibrosis score; assay type: in vivo; conditions: 200 mg/kg p.o. three times per week
# Experimental: Wild-type mice, […] (manufactured by Charles River Japan), were housed on a 12-hour light/dark cycle and fed a standard solid diet (5.4% fat, CRF-1, manufactured by Oriental Yeast Co., Ltd.) ad libitum. Thioacetamide (TAA, manufactured by FUJIFILM Wako Pure Chemical Corporation) was dissolved in physiological saline at 0.9% w/v. Eight-week-old mice were randomly assigned to three groups and continuously treated for 9 weeks according to the following scheme. At Week 9, all mice were euthanized 1 hour after administration of physiological saline or IMG.
# Normal control group (N=6): Physiological saline was intraperitoneally administered to mice three times per week. Eight hours after each administration, a vehicle was orally administered to the mice.
# TAA group (N=6): TAA (50 mg/kg, intraperitoneal) was administered to mice. Eight hours thereafter, physiological saline was orally administered to the mice. This treatment was performed three times per week for a total of 9 weeks.
# TAA+IMG group (N=6): During the first week, physiological saline was orally administered to mice. Thereafter, imeglimin (IMG) at 200 mg/kg was orally administered three times per week for 8 weeks. The administration of IMG was performed 8 hours after intraperitoneal administration of TAA (50 mg/kg).
# For immunohistochemical analysis, liver samples were fixed in 4% paraformaldehyde, embedded in paraffin, and then sectioned. The sections were stained with HE or PSR. In addition, the paraffin-embedded sections were subjected to immunostaining using an α-SMA monoclonal antibody (1:500, catalog No. A5228, manufactured by Sigma-Aldrich) and an F4/80 monoclonal antibody (1:200, catalog No. MCA497GA, manufactured by AbD Serotec). The cell specimens were observed using a microscope (BZ-X700 series, manufactured by Keyence) or a confocal laser microscope (FV1000, manufactured by Olympus Corporation). The number of F4/80-positive cells was counted in four high-power fields per section. The α-SMA-positive area and the PSR-positive area were quantified using the image analysis software Fiji-ImageJ (1.54f).
# A histological score was determined by a blinded investigator using the NAFLD histological scoring system of the Nonalcoholic Steatohepatitis Clinical Research Network. The total NAFLD activity score (NAS) was calculated from the total of the individual scores for steatosis ([…]), lobular inflammation (F4/80), and hepatocyte ballooning. The range of each parameter was 0 to 2 (ballooning) or 3 (the other two scores), where 0 indicates normal and 2 or 3 indicates severe. Staging of fibrosis was based on the NASH fibrosis stages, and a fibrosis stage ranging from 0 to 4 was determined according to Reference H (David E. Kleiner et al., 2005, Design and validation of a histological scoring system for nonalcoholic fatty liver disease, Hepatology, 41, 1313-1321).
# All results are expressed as the mean±standard error of the mean (S.E.M.). Statistical analyses were performed using GraphPad Prism 7.0 (GraphPad Software). Significance upon comparison between two groups was evaluated by an unpaired two-tailed Student's t-test. […]. Statistical significance among three or more groups was determined by two-way analysis of variance (ANOVA) with Tukey's or Dunnett's post hoc test. Coloc2 was used to perform image analysis, automatic thresholding, and pixel intensity correlation for statistical processing. Statistical significance was assumed when the P value was <0.05.
# α-SMA in mouse liver = assay: α-SMA Western blotting of liver tissue of TAA-treated mice; assay type: in vivo; conditions: imeglimin 200 mg/kg p.o. (FIG. 31)
# Experimental: In accordance with Example 15, immunostaining of α-SMA in liver sections and observation by fluorescence microscopy were performed for the normal control group, the TAA group, and the TAA+IMG group, and for a TAA+Clo group, which was treated in the same manner as the TAA+IMG group except that clodronate, instead of imeglimin, was administered at 30 mg/kg by blending it in the drinking water from 1 week after the start of TAA administration.
# Further, α-SMA was compared by Western blotting. Fresh mouse liver was homogenized in Western lysis buffer (20 mM Tris-HCl, pH 7.6, 150 mM NaCl, 2 mM EDTA, 0.5% NP-40) supplemented with protease and phosphatase inhibitor tablets (manufactured by Roche Applied Science), followed by centrifugation at 10,000×g at 4° C. for 5 minutes to obtain a supernatant. Protein content in the supernatant was quantified using a BCA Protein Assay Kit (manufactured by ThermoFisher Scientific). […] Thereafter, protein bands were visualized using an […] (ECL) Western blotting detection system (manufactured by GE Healthcare) and detected with an image analyzer LAS-4000 mini (manufactured by Fujifilm).
Structure (SMILES),ATP secretion inhibitory action (ATP secretion),inhibitory effects on psoriatic symptoms by TMG1 immunohistochemical images (mouse auricle; Day 8 (FIG. 42)),"erythema (excepted from the symptoms reduced) (mouse auricle; imeglimin 40 mg/kg oral daily or infliximab 100 μg/mouse i.v. Days 1, 3, 5, N=5 (FIG. 38))","typical psoriatic symptoms induced by imiquimod, except erythema (thickness, desquamation, infiltration, PASI score) (mouse auricle; imeglimin 40 mg/kg oral daily or infliximab 100 μg/mouse i.v. Days 1, 3, 5, N=5 (FIGS. 37-41))",effect of imeglimin compared with infliximab (mouse auricle; imeglimin 40 mg/kg oral vs infliximab 100 μg/mouse i.v.),"destruction of the lobular structure, hepatocyte ballooning, and inflammatory cell infiltration (mouse liver; 8 weeks)",fibrosis stage (mouse liver; 8 weeks),TAA-induced increase in F4/80-positive macrophages (mouse liver; 8 weeks (FIG. 27)),TAA-induced increase in α-SMA-positive reaction (mouse liver; 8 weeks (FIG. 27)),TAA-induced increase in fibrosis score (mouse liver; 8 weeks (FIG. 28)),"PSR staining-positive area (mouse liver; 8 weeks, TAA+IMG vs TAA group, N=6)",TAA-induced increase in α-SMA (Western blotting) (α-SMA in mouse liver)
O=P(O)(O)C(Cl)(Cl)P(=O)(O)O [clodronate],known to have an ATP secretion inhibitory action,–,–,–,–,–,–,–,–,–,–,–
C[C@@H]1N=C(N)NC(N(C)C)=N1 [imeglimin],–,supported by the immunohistochemical images of TMG1,except erythema,reduced,"almost equivalent, or imeglimin was more effective",reduced,reducing the fibrosis stage,strongly suppressed,strongly suppressed,suppressed,significantly reduced,markedly suppressed
